Laboratory results: patent USRE39591E1, “6-O-substituted ketolides having antibacterial activity” (Abbott Laboratories, priority 1996, dated 2007)
In brackets after ≈: the same amount, converted by molar mass.

Tested on: up to 32 different microorganisms
Experiment: in vitro antibacterial activity (MIC), agar dilution on Brain Heart Infusion (BHI) agar with Steers replicator
Format: cell-based
Settings: unit assumed
In short: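 Erythromycin A served as the same-class reference for test-to-test comparability. Test compound was tested over twelve successive dilutions in BHI agar; plates were incubated 20 to 24 hours at 35°-37° C, with MIC taken as the lowest concentration showing no growth, slight haze, or sparse colonies.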

[1] = Candida albicans CCH 442 (code TT)
[2] = Enterococcus faecism ATCC 8043 (code II)
[3] = Escherichia coli DC-2 (code SS)
[4] = Escherichia coli JUHL (code QQ)
[5] = Micrococcus luteus ATCC 4698 (code PP)
[6] = Micrococcus luteus ATCC 9341 (code OO)
[7] = Mycobacterium smegmatis ATCC 114 (code UU)
[8] = Nocardia Asteroides ATCC9970 (code VV)
[9] = Staphylococcus aureus 1775 (code GG)
[10] = Staphylococcus aureus A5177 (code BB)
[11] = Staphylococcus aureus A-5278 (code CC)
[12] = Staphylococcus aureus ATCC 6538P (code AA)
[13] = Staphylococcus aureus CMX 553 (code FF)
[14] = Staphylococcus aureus CMX 642A (code DD)
[15] = Staphylococcus aureus NCTC10649M (code EE)
[16] = Staphylococcus epidermidis 3519 (code HH)
[17] = Streptococcus agalactiae CMX 508 (code KK)
[18] = Streptococcus bovis A-5169 (code JJ)
[19] = Streptococcus pyogenes 930 (code MM)
[20] = Streptococcus pyogenes EES61 (code LL)
[21] = Streptococcus pyogenes PIU 2548 (code NN)

CCC1OC(=O)C(C)C(=O)C(C)C(OC2OC(C)CC(N(C)C)C2O)C(C)(OCC=Cc2ccc3ncccc3c2)CC(C)C(=O)C(C)C2NC(=O)OC12C (stereo not shown) [Example 194, R is —CH2CH═CH-(6-quinolyl)]
MIC [1]: > 100 µg/mL | MIC [2]: 0.02 µg/mL (≈ 0.0261 µM) | MIC [3]: 100 µg/mL (≈ 131 µM) | MIC [4]: 50 µg/mL (≈ 65.3 µM) | MIC (Escherichia coli SS (code RR)): 0.39 µg/mL (≈ 0.509 µM) | MIC [5]: 0.1 µg/mL (≈ 0.131 µM) | MIC [6]: 0.01 µg/mL (≈ 0.0131 µM) | MIC [7]: 0.78 µg/mL (≈ 1.02 µM) | MIC [8]: ≤ 0.005 µg/mL | MIC [9]: > 100 µg/mL | MIC [10]: 0.05 µg/mL (≈ 0.0653 µM) | MIC [11]: > 100 µg/mL | MIC [12]: 0.05 µg/mL (≈ 0.0653 µM) | MIC [13]: 0.05 µg/mL (≈ 0.0653 µM) | MIC [14]: 0.05 µg/mL (≈ 0.0653 µM) | MIC [15]: 0.1 µg/mL (≈ 0.131 µM) | MIC [16]: 0.05 µg/mL (≈ 0.0653 µM) | MIC [17]: 0.01 µg/mL (≈ 0.0131 µM) | MIC [18]: ≤ 0.005 µg/mL | MIC [19]: 0.78 µg/mL (≈ 1.02 µM) | MIC [20]: 0.01 µg/mL (≈ 0.0131 µM) | MIC [21]: 0.05 µg/mL (≈ 0.0653 µM)

C=CCO[C@@]1(C)C[C@@H](C)C(=O)[C@H](C)[C@H]2N(C)C(=O)O[C@]2(C)[C@@H](CC)OC(=O)[C@H](C)C(=O)[C@H](C)[C@H]1O[C@@H]1O[C@H](C)C[C@H](N(C)C)[C@H]1O [Example 179, Compound of Formula (IX): L is CO, T is N(CH3), R is —CH2CH═CH2]
MIC [1]: > 100 µg/mL | MIC [2]: 1.56 µg/mL | MIC [3]: > 100 µg/mL | MIC [4]: > 100 µg/mL | MIC (Escherichia coli SS (code RR)): 6.2 µg/mL | MIC (Haemophilis influenzae DILL AMP R (code WW)): > 128 µg/mL | MIC [5]: 3.1 µg/mL | MIC [6]: 1.56 µg/mL | MIC [7]: 12.5 µg/mL | MIC [8]: 3.1 µg/mL | MIC [9]: > 100 µg/mL | MIC [10]: 6.2 µg/mL | MIC [11]: > 100 µg/mL | MIC [12]: 6.2 µg/mL | MIC [13]: 6.2 µg/mL | MIC [14]: 6.2 µg/mL | MIC [15]: 6.2 µg/mL | MIC [16]: 12.5 µg/mL | MIC (Streptococcus Pneumonia 5649 (code ZZA)): 0.5 µg/mL | MIC (Streptococcus Pneumonia 5979 (code ZZ)): > 128 µg/mL | MIC (Streptococcus Pneumonia ATCC6303 (code XX)): 0.5 µg/mL | MIC (Streptococcus Pneumonia GYR 1171 (code YY)): 0.5 µg/mL | MIC [17]: 0.39 µg/mL | MIC [18]: 0.39 µg/mL | MIC [19]: > 100 µg/mL | MIC [20]: 0.39 µg/mL | MIC [21]: 0.78 µg/mL

CCC1OC(=O)C(C)C(=O)C(C)C(OC2OC(C)CC(N(C)C)C2O)C(C)(OCC(O)c2ccccc2)CC(C)C(=O)C(C)C2NC(=O)OC12C (single isomer, unassigned) [Example 261A]
MIC (organism code AA): 6.2 µg/mL (≈ 8.62 µM) | MIC (organism code BB): 6.2 µg/mL (≈ 8.62 µM) | MIC (organism code CC): > 100 µg/mL | MIC (organism code DD): 12.5 µg/mL (≈ 17.4 µM) | MIC (organism code EE): 12.5 µg/mL (≈ 17.4 µM) | MIC (organism code FF): 12.5 µg/mL (≈ 17.4 µM) | MIC (organism code GG): > 100 µg/mL | MIC (organism code HH): 6.2 µg/mL (≈ 8.62 µM) | MIC (organism code II): 1.56 µg/mL (≈ 2.17 µM) | MIC (organism code JJ): 0.39 µg/mL (≈ 0.543 µM) | MIC (organism code KK): 0.39 µg/mL (≈ 0.543 µM) | MIC (organism code LL): 0.39 µg/mL (≈ 0.543 µM) | MIC (organism code MM): > 100 µg/mL | MIC (organism code NN): 1.56 µg/mL (≈ 2.17 µM) | MIC (organism code OO): 0.78 µg/mL (≈ 1.09 µM) | MIC (organism code PP): 3.1 µg/mL (≈ 4.31 µM) | MIC (organism code QQ): > 100 µg/mL | MIC (organism code RR): 6.2 µg/mL (≈ 8.62 µM) | MIC (organism code SS): > 100 µg/mL | MIC (organism code TT): > 100 µg/mL | MIC (organism code UU): 25 µg/mL (≈ 34.8 µM) | MIC (organism code VV): 6.2 µg/mL (≈ 8.62 µM) | MIC (organism code WW): 64 µg/mL (≈ 89 µM) | MIC (organism code XX): 1 µg/mL (≈ 1.39 µM) | MIC (organism code YY): 1 µg/mL (≈ 1.39 µM) | MIC (organism code ZZ): > 128 µg/mL | MIC (organism code ZZA): 2 µg/mL (≈ 2.78 µM)

CC[C@H]1OC(=O)[C@H](C)C(=O)[C@H](C)[C@@H](O[C@@H]2O[C@H](C)C[C@H](N(C)C)[C@H]2O)[C@@](C)(OCC=NOCc2ccc3ccccc3n2)C[C@@H](C)C(=O)[C@H](C)[C@H]2NC(=O)O[C@@]21C [Example 232, Compound of Formula (IX): L is CO, T is NH, R is —CH2CH═NOCH2(2-quinolyl)]
MIC (organism code AA): 0.1 µg/mL | MIC (organism code BB): 0.1 µg/mL | MIC (organism code CC): > 100 µg/mL | MIC (organism code DD): 0.2 µg/mL | MIC (organism code EE): 0.2 µg/mL | MIC (organism code FF): 0.1 µg/mL | MIC (organism code GG): > 100 µg/mL | MIC (organism code HH): 0.2 µg/mL | MIC (organism code II): 0.02 µg/mL | MIC (organism code JJ): 0.02 µg/mL | MIC (organism code KK): 0.02 µg/mL | MIC (organism code LL): 0.02 µg/mL | MIC (organism code MM): > 100 µg/mL | MIC (organism code NN): 0.2 µg/mL | MIC (organism code OO): 0.02 µg/mL | MIC (organism code PP): 0.2 µg/mL | MIC (organism code QQ): 25 µg/mL | MIC (organism code RR): 0.39 µg/mL | MIC (organism code SS): > 100 µg/mL | MIC (organism code TT): > 100 µg/mL | MIC (organism code UU): 0.39 µg/mL | MIC (organism code VV): 0.05 µg/mL | MIC (organism code WW): 2 µg/mL | MIC (organism code XX): 0.03 µg/mL | MIC (organism code YY): 0.03 µg/mL | MIC (organism code ZZ): > 128 µg/mL | MIC (organism code ZZA): 0.5 µg/mL

CC[C@H]1OC(=O)[C@H](C)C(=O)[C@H](C)[C@@H](O[C@@H]2O[C@H](C)C[C@H](N(C)C)[C@H]2O)[C@@](C)(OCC=NOCc2cnc3ccccc3c2)C[C@@H](C)C(=O)[C@H](C)[C@H]2NC(=O)O[C@@]21C [Example 233, Compound of Formula (IX): L is CO, T is NH, R is —CH2CH═NOCH2(3-quinolyl)]
MIC (organism code AA): 0.1 µg/mL | MIC (organism code BB): 0.1 µg/mL | MIC (organism code CC): > 100 µg/mL | MIC (organism code DD): 0.2 µg/mL | MIC (organism code EE): 0.2 µg/mL | MIC (organism code FF): 0.1 µg/mL | MIC (organism code GG): > 100 µg/mL | MIC (organism code HH): 0.2 µg/mL | MIC (organism code II): 0.05 µg/mL | MIC (organism code JJ): 0.02 µg/mL | MIC (organism code KK): 0.02 µg/mL | MIC (organism code LL): 0.02 µg/mL | MIC (organism code MM): 100 µg/mL | MIC (organism code NN): 0.1 µg/mL | MIC (organism code OO): 0.02 µg/mL | MIC (organism code PP): 0.3 µg/mL | MIC (organism code QQ): 50 µg/mL | MIC (organism code RR): 0.39 µg/mL | MIC (organism code SS): 50 µg/mL | MIC (organism code TT): > 100 µg/mL | MIC (organism code UU): 0.78 µg/mL | MIC (organism code VV): 0.05 µg/mL | MIC (organism code WW): 2 µg/mL | MIC (organism code XX): 0.03 µg/mL | MIC (organism code YY): 0.03 µg/mL | MIC (organism code ZZ): 64 µg/mL | MIC (organism code ZZA): 0.25 µg/mL

CC[C@H]1OC(=O)[C@H](C)C(=O)[C@H](C)[C@@H](O[C@@H]2O[C@H](C)C[C@H](N(C)C)[C@H]2O)[C@@](C)(OCC2COC(C)(C)O2)C[C@@H](C)C(=O)[C@H](C)[C@H]2NC(=O)O[C@@]21C (stereo partly shown) [Example 259, Compound of Formula (IX): L is CO, T is NH, R is —CH2-(2,2-dimethyl-1,3-dioxolan-4-yl)]
MIC (organism code AA): 6.2 µg/mL | MIC (organism code BB): 6.2 µg/mL | MIC (organism code CC): > 100 µg/mL | MIC (organism code DD): 12.5 µg/mL | MIC (organism code EE): 6.2 µg/mL | MIC (organism code FF): 6.2 µg/mL | MIC (organism code GG): > 100 µg/mL | MIC (organism code HH): 6.2 µg/mL | MIC (organism code II): 0.78 µg/mL | MIC (organism code JJ): 0.39 µg/mL | MIC (organism code KK): 0.78 µg/mL | MIC (organism code LL): 0.39 µg/mL | MIC (organism code MM): > 100 µg/mL | MIC (organism code NN): 1.56 µg/mL | MIC (organism code OO): 0.78 µg/mL | MIC (organism code PP): 1.56 µg/mL | MIC (organism code QQ): > 100 µg/mL | MIC (organism code RR): 1.56 µg/mL | MIC (organism code SS): > 100 µg/mL | MIC (organism code TT): > 100 µg/mL | MIC (organism code UU): 12.5 µg/mL | MIC (organism code VV): 3.1 µg/mL | MIC (organism code WW): 128 µg/mL | MIC (organism code XX): 1 µg/mL | MIC (organism code YY): 1 µg/mL | MIC (organism code ZZ): > 128 µg/mL | MIC (organism code ZZA): 4 µg/mL
